# Laboratory results from ChEMBL document CHEMBL5150062, “Computational design, synthesis and biological evaluation of PDE5 inhibitors based on N2,N4-diaminoquinazoline and N2,N6-diaminopurine scaffolds” (Bioorg Med Chem, 2022).
# Columns and labels:
# [1] = target: T1, cGMP-specific 3',5'-cyclic phosphodiesterase (Homo sapiens, UniProt O76074); experiment: Inhibition of human PDE5 using [3H]cGMP as substrate at 1 uM incubated for 10 mins by liquid scintillation counter analysis relative to control
# [2] = target: T1, cGMP-specific 3',5'-cyclic phosphodiesterase; experiment: Inhibition of human PDE5 using [3H]cGMP as substrate incubated for 10 mins by liquid scintillation counter analysis
# Bos taurus = organism: Bos taurus; experiment: Inhibition of bovine heart PDE1 using [3H]cGMP as substrate at 10 uM incubated for 10 mins by liquid scintillation counter analysis relative to control
# [3] = Aqueous solubility of the compound in pH 7.4 PBS measured after 7 hrs by HPLC-UV analysis; type: physicochemical; conditions: for solubility at 7 h: PBS, pH 7.4
# [4] = 1-Octanol/PBS partition coefficient, logD of the compound at pH 7.4 incubated for 7 hrs by shake flask technique based HPLC-UV analysis; type: physicochemical
# [5] = Inhibition of bovine heart PDE1 using [3H]cGMP as substrate incubated for 10 mins by liquid scintillation counter analysis; set-up: species or system Bos taurus
# [6] = Selectivity index, ratio of IC50 for inhibition of bovine heart PDE1to IC50 for inhibition of human PDE5
Compound,inhibition [1] [%],IC50 [2] [nM],further results
CN1CCN(S(=O)(=O)c2cccc(Nc3nc(NCc4ccccc4)c4ccccc4n3)c2)CC1,98.3,500,–
CC(C)CNc1nc(Nc2cccc(S(=O)(=O)N3CCN(C)CC3)c2)nc2ccccc12,97.3,430,inhibition (Bos taurus): 67.2%; solubility at 7 h [3]: 0.6 µg/mL; logD at 7 h [4]: 3.55
CN1CCN(S(=O)(=O)c2ccc(Nc3nc(NCc4ccccc4)c4ncn(C)c4n3)cc2)CC1,97.3,38400,–
CC(C)N1CCC(Nc2nc(Nc3cccc(S(N)(=O)=O)c3)nc3ccccc23)CC1,96.3,1030,–
NS(=O)(=O)c1cccc(Nc2nc(NC3CCN(Cc4ccccc4)CC3)c3nc[nH]c3n2)c1,94.3,290,inhibition (Bos taurus): 31.2%; solubility at 7 h [3]: 150 µg/mL; logD at 7 h [4]: 2.16
CCCNc1nc(Nc2ccc(S(=O)(=O)N3CCN(C)CC3)cc2)nc2c1ncn2C,93.6,18900,–
CN(C)CCNc1nc(Nc2cccc(S(=O)(=O)N3CCN(C)CC3)c2)nc2ccccc12,75.3,5280,–
CC(C)N1CCC(Nc2nc(Nc3cccc(S(=O)(=O)N4CCN(C)CC4)c3)nc3ccccc23)CC1,93.6,150,inhibition (Bos taurus): 28.2%; solubility at 7 h [3]: 1770 µg/mL; logD at 7 h [4]: 2.15
CC(C)N1CCC(Nc2nc(Nc3cccc(S(N)(=O)=O)c3)nc3[nH]cnc23)CC1,32.7,–,–
CCCNc1nc(Nc2cccc(S(N)(=O)=O)c2)nc2cc(OC)c(OC)cc12,91.6,1440,–
CN1CCN(S(=O)(=O)c2cccc(Nc3nc(NCc4ccccc4)c4nc[nH]c4n3)c2)CC1,99.3,2020,–
COc1cc2nc(Nc3cccc(S(N)(=O)=O)c3)nc(NCC(C)C)c2cc1OC,94.9,5230,–
NS(=O)(=O)c1cccc(Nc2nc(NCc3ccccc3)c3ccccc3n2)c1,101,100,inhibition (Bos taurus): 73.9%; IC50 [5]: 11800 nM; solubility at 7 h [3]: 2.1 µg/mL; logD at 7 h [4]: 3.87; Ratio IC50 [6]: 100
COc1cc2nc(Nc3cccc(S(=O)(=O)N4CCN(C)CC4)c3)nc(NC3CCN(C(C)C)CC3)c2cc1OC,18.5,–,–
CN1CCN(S(=O)(=O)c2cccc(Nc3nc(NCc4cccs4)c4ccccc4n3)c2)CC1,93.9,520,–
NS(=O)(=O)c1cccc(Nc2nc(NC3CCN(Cc4ccccc4)CC3)c3ccccc3n2)c1,93.4,220,inhibition (Bos taurus): 61.7%; solubility at 7 h [3]: 4.2 µg/mL; logD at 7 h [4]: 3.37

Compound,inhibition [1] [%],IC50 [2] [nM],further results
CC(C)CNc1nc(Nc2cccc(S(=O)(=O)N3CCN(C)CC3)c2)nc2c1ncn2C,91.8,33300,–
Cn1cnc2c(NCc3ccccc3)nc(Nc3cccc(S(N)(=O)=O)c3)nc21,86.1,4460,–
COc1cc2nc(Nc3cccc(S(N)(=O)=O)c3)nc(NC3CCN(C(C)C)CC3)c2cc1OC,79.3,3410,–
COc1cc2nc(Nc3ccc(S(N)(=O)=O)cc3)nc(NCC(C)C)c2cc1OC,94.6,3970,–
Cn1cnc2c(NCc3ccccc3)nc(Nc3ccc(S(N)(=O)=O)cc3)nc21,96.5,23000,–
CCCNc1nc(Nc2ccc(S(=O)(=O)N3CCN(C)CC3)cc2)nc2ccccc12,95.6,410,inhibition (Bos taurus): 46.8%; solubility at 7 h [3]: 0.1 µg/mL; logD at 7 h [4]: 3.92
CCCNc1nc(Nc2cccc(S(=O)(=O)N3CCN(C)CC3)c2)nc2ccccc12,96.9,600,–
COc1cc2nc(Nc3cccc(S(N)(=O)=O)c3)nc(NC3CCN(Cc4ccccc4)CC3)c2cc1OC,93.7,1640,–
CN(C)CCNc1nc(Nc2cccc(S(N)(=O)=O)c2)nc2ccccc12,72.2,9390,–
CN1CCN(S(=O)(=O)c2cccc(Nc3nc(NCc4ccccc4)c4ncn(C)c4n3)c2)CC1,69,–,–
CC(C)CNc1nc(Nc2ccc(S(=O)(=O)N3CCN(C)CC3)cc2)nc2ccccc12,99,360,inhibition (Bos taurus): 44.8%; solubility at 7 h [3]: 3 µg/mL; logD at 7 h [4]: 3.68
CCCc1nn(C)c2c(=O)[nH]c(-c3cc(S(=O)(=O)N4CCN(C)CC4)ccc3OCC)nc12,–,–,"solubility ([3]; buffer, pH 7.4, 7 h): 180 µg/mL; logD at 7 h [4]: 2.69"
CCCNc1nc(Nc2cccc(S(=O)(=O)N3CCN(C)CC3)c2)nc2c1ncn2C,93.6,43200,–
CN1CCN(S(=O)(=O)c2ccc(Nc3nc(NCc4ccccc4)c4ccccc4n3)cc2)CC1,96.5,490,–
CC(C)CNc1nc(Nc2ccc(S(=O)(=O)N3CCN(C)CC3)cc2)nc2c1ncn2C,96,28500,–
